Assay results: US6372466B1, “C-4 specific sulfotransferase” (Seikagaku Corporation, priority 1998, dated 2002)
“Also recorded” adds a separate entry of the source.

What was measured:
Assay type in all cases: biochemical, rat
[1] = system: G4ST; assay: Substrate specificity of G4ST (sulfate transfer to glycosaminoglycans); conditions: for transfer of a sulfate group by G4ST to the glycosaminoglycan as acceptor: 25 nmol as galactosamine or glucosamine, replacing chondroitin in the reaction mixture
Experimental: According to the measurement method for enzymatic activity described above, the activity of G4ST of transferring a sulfate group to glycosaminoglycans other than chondroitin was measured. A reaction mixture used as a control of reaction was the reaction mixture described for the above-mentioned assay method for enzymatic activity (imidazole hydrochloride (2.5 μmol, pH 6.8), protamine chloride (1.25 μg), dithiothreitol (0.1 μmol), chondroitin (25 nmol as glucuronic acid), [^35S]PAPS (50 pmol: about 5.0×10^5 cpm), and an enzyme, total volume 50 μl) and the activity was measured by replacing the chondroitin contained in the above-mentioned reaction mixture as a control with (1) chondroitin sulfate A (derived from whale cartilage) (manufactured by Seikagaku Corp.), chondroitin sulfate C (derived from shark cartilage) (manufactured by Seikagaku Corp.), and chondroitin sulfate E (derived from squid cartilage) (prepared by the method described in Habuchi, O., Sugiura, K., Kawai, N. and Suzuki, S. (1977) J. Biol. Chem. 252, 4570-4576), (2) dermatan sulfate (derived from pig skin) (manufactured by Seikagaku Corp.), (3) desulfated dermatan sulfate (prepared by the method described by Nagasawa, et al. (Nagasawa, K., Inoue, Y., and Tokuyasu, T. (1995) J. Biochem. 86, 1323-1329)), (4) heparan sulfate (derived from bovine kidney) (manufactured by Seikagaku Corp.), (5) CDSNS-heparin (completely desulfated N-sulfated heparin: manufactured by Seikagaku Corp.), and (6) keratan sulfate (derived from bovine cornea) (manufactured by Seikagaku Corp.) ((1), (2) and (3) were each in an amount of 25 nmol as galactosamine, while (4), (5) and (6) were each in an amount of 25 nmol as glucosamine).
To identify a sulfate group receptor, the purified G4ST was allowed to react with various glycosaminoglycans in the presence of protamine chloride in various concentrations (FIG. 7). In FIG. 7, closed circles indicate the results on chondroitin, open circles indicates the results on desulfated dermatan sulfate, closed triangles indicate the results on chondroitin sulfate A, open triangles indicates the results on chondroitin sulfate C, and closed square indicate the results on dermatan sulfate.
Target sequence in this assay (P69478 101-352 limits assumed): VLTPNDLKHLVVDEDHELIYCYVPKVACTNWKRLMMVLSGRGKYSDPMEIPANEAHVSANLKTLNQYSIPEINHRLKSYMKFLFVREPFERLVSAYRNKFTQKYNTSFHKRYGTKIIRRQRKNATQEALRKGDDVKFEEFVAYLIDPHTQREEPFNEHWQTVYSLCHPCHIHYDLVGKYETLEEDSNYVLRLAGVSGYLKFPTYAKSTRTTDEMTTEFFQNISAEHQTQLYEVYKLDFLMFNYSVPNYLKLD

[2] = system: G4ST; assay: G4ST enzymatic activity assay ([35S]PAPS sulfate transfer to chondroitin); conditions: protamine 0.25 mg/ml
Target sequence in this assay (P69478 101-352 limits assumed): as above

[3] = system: G4ST; assay: as above
Experimental: The activities of G4ST and C6ST were assayed in accordance with the method of Habuchi, O. et al. (Habuchi, O., Matsui, Y., Kotoya, Y., Aoyama, Y., Yasuda, Y., and Noda, M., (1993) J. Biol. Chem., 268, 21968-21974). The reaction mixture contained imidazole hydrochloride (2.5 μmol, pH 6.8), protamine chloride (1.25 μg), dithiothreitol (0.1 μmol), chondroitin (25 nmol as glucuronic acid, derived from squid skin, prepared by the method described in Habuchi, O. and Miyata, K. (1980) Biochim. Biophys. Acta 616, 208-217), [^35S]PAPS (50 pmol: about 5.0×10^5 cpm: prepared by the method of Delfert, D. M., et al. (Delfert, D. M., and Conrad, H. E. (1985) Anal. Biochem. 148, 303-310)) and an enzyme in a final volume of 50 μl.
The above-mentioned reaction mixture was incubated at 37° C. for 20 minutes and immersed in a water bath kept at 100° C. for 1 minute to stop the enzymatic reaction. After the reaction was stopped, [^35S]-labeled chondroitin was isolated by desalting by gel chromatography using a Fast Desalting Column and precipitation with ethanol, and radioactivity was measured by the conventional manner.
To distinguish the activities of C6ST and G4ST one from another, [^35S]-labeled chondroitin was digested with chondroitinase ACII and unsaturated disaccharides (ΔDi-4S (2-acetamide-2-deoxy-3-O-(β-D-gluco-4-enepyranosyluronic acid)-4-O-sulfo-D-galactose) and ΔDi-6S (2-acetamide-2-deoxy-3-O-(β-D-gluco-4-enepyranosyluronic acid-6-O-sulfo-D-galactose)) were separated by paper chromatography (filter paper: Toyo No. 51A and solvent: 1-butanol/acetic acid/NH3 (1 M) (volume ratio 2:3:1)), the separated unsaturated disaccharides were visualized by irradiation of ultraviolet rays, the regions containing the disaccharides were cut out, and then radioactivities thereof were counted.
The amount of enzymatic activity required for transferring 1 pmol of a sulfate group for 1 minute under the conditions of 37° C. and pH 6.8 was defined as one unit as a unit of enzymatic activity.
Also, in the above-mentioned assay method for enzymatic activity, pH of imidazole hydrochloride buffer in the reaction mixture was varied (pH range: 6.3 to 7.6) and in addition, the buffer was replaced by one of buffers having various pH ranges (0.05 M, acetate buffer: pH 4.2 to 5.4, MES buffer: pH 5.4 to 6.8, Tris-HCl buffer: pH 7.2 to 9.0), and G4ST activity was assayed at each pH range (FIG. 6B).
In the above-mentioned assay method for enzymatic activity, the concentration of [^35S]PAPS in the reaction mixture was varied to measure the Km value of [^35S]PAPS as a sulfate group donor.

[4] = system: G4ST; assay: Identification of the sulfate group-transferring site of G4ST (chondroitinase digestion, HPLC / Superdex 30); conditions: 35S-labeled by G4ST, digested with chondroitinase ACII, Partisil 10-SAX HPLC
Experimental: To identify the sulfate group-transferring. site of chondroitin and desulfated dermatan sulfate, ^35S-labeled glycosaminoglycan obtained by sulfotransfer reaction by G4ST was digested with chondroitinase ACII (manufactured by Seikagaku Corp.) or chondroitinase ABC (manufactured by Seikagaku Corp.) and the digestion products were analyzed by HPLC (high performance liquid chromatography). ^35S-Labeling was performed under the same conditions as the above-mentioned assay method for enzymatic activity except that the amount of protamine chloride was increased to 10 μg. The unsaturated disaccharides obtained by the digestion of ^35S-labeled chondroitin and ^35S-labeled desulfated dermatan sulfate with chondroitinase ACII or chondroitinase ABC were isolated by HPLC using a Partisil 10-SAX column (4.5 mm×25 cm: manufactured by Whatman) equiberated with KH2PO4 (35 mM). The column was eluted by concentration gradient of KH2PO4 under the conditions of a flow rate of 1 ml/minute and a column temperature of 40° C. to recover 0.5 ml of fractions.
Further, a Superdex 30 gel chromatography was performed using a digestion product obtained by digesting ^35S-labeled desulfated dermatan sulfate with chondroitinase ABC and chondroltinase ACII or chondroitinase ACII alone. […]
Target sequence in this assay (P69478 101-352 limits assumed): as above

[5] = SH group-containing substance in the reaction mixture

Molecule	transfer of a sulfate group by G4ST to the glycosaminoglycan as acceptor [1]	effect on G4ST activity ([3]; metal ion 5 mM)	also measured
heparan sulfate	transferred substantially no sulfate group; also recorded: transfers substantially no sulfate group		
protamine			effect on G4ST activity [2]: activated; also recorded: enhanced
[Co+2] [Co^2+]		inhibit the activity of G4ST; also recorded: inhibited	
[Ba+2] [Ba^2+]		activated; also recorded: enhanced	
chondroitin sulfate E	transferred substantially no sulfate group		
[Mg+2] [Mg^2+]			activating action on G4ST compared with other metal ions ([3]; concentration not printed for Mg2+): lowest in such an activating action
keratan sulfate	transferred substantially no sulfate group		
chondroitin	transfers a sulfate group		lowest protamine chloride concentration at which enhancement of activity was observed ([1]; protamine chloride in various concentrations): 0.25 mg/mL; radioactivity in eluted fractions of ΔDi-4S [4]: radioactivity was detected only in the eluted fractions of ΔDi-4S
[Fe+2] [Fe^2+]		activated; also recorded: enhanced	
O[C@H](CS)[C@H](O)CS (racemic) [dithiothreitol]			effect on G4ST activity [3, 5]: enhanced the activity of G4ST
chondroitin sulfate A	slight amount of activity; also recorded: transfers a sulfate group		
OCCS [2-mercaptoethanol]			effect on G4ST activity [3, 5]: enhanced the G4ST activity
chondroitin sulfate C	transfers a sulfate group		
dermatan sulfate	transferred substantially no sulfate group		
[Mn+2] [Mn^2+]		activated; also recorded: enhanced	
[Ca+2] [Ca^2+]		activated; also recorded: most activated; also recorded: enhanced	
Nc1ncnc2c1ncn2[C@@H]1O[C@H](COP(=O)(O)OS(=O)(=O)O)[C@@H](OP(=O)(O)O)[C@H]1O [PAPS, 3′-phosphoadenosine 5′-phosphosulfate]			Km ([3]; [35S]PAPS as sulfate group donor, concentration varied): 0.27 µM
N[C@@H](CCC(=O)N[C@@H](CS)C(=O)NCC(=O)O)C(=O)O [reduced glutathione]			effect on G4ST activity [3, 5]: enhanced the G4ST activity
[Sr+2] [Sr^2+]		activated; also recorded: enhanced	
